From patent publication US5087726A, “Carbamate ACAT inhibitors” (Warner-Lambert Company, priority 1990, dated 1992) come the findings set out here.

The target in this test is T1, acyl-CoA:cholesterol acyltransferase (ACAT) (Oryctolagus cuniculus, UniProt G1SFD9).
T1 construct: tissue preparation containing rabbit intestinal microsomes; from tissue; host or cells: rabbit intestinal microsomes
T1 sequence (G1SFD9 1-524): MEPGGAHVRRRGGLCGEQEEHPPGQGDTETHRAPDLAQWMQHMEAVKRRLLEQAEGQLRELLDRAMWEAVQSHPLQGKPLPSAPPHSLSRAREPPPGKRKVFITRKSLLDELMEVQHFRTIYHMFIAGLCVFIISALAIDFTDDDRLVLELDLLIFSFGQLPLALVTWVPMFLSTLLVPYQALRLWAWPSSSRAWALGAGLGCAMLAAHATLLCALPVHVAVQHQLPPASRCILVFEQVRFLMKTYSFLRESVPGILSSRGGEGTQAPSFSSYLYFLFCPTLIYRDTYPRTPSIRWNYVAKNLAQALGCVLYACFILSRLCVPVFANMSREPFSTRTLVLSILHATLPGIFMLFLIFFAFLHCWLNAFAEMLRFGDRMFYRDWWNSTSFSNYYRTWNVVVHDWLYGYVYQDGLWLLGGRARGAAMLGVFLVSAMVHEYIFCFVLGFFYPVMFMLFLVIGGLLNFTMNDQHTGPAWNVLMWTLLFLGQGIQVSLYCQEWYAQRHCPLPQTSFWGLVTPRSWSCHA
Put plainly: in vitro ACAT inhibition: radiolabeled cholesterol oleate formed from radiolabeled oleic acid in rabbit intestinal microsomes. As to conditions: tissue preparation containing rabbit intestinal microsomes; read-out: IC50 value, i.e. the concentration of test compound required to inhibit 50% expression of the enzyme. In kind it is biochemical. How it is done:
The ability of representative compounds of the present invention to inhibit ACAT was measured using an in vitro test more fully described in Field, F. J. and Salone, R. G., Biochemica et Biophysica 712: 557-570 (1982). The test assesses the ability of a test compound to inhibit the acylation of cholesterol by oleic acid by measuring the amount of radiolabeled cholesterol oleate formed from radiolabeled oleic acid in a tissue preparation containing rabbit intestinal microsomes.

As to `CCCCCCCCCCCC(=O)N[C@@H](CNC(=O)Oc1c(C(C)C)cccc1C(C)C)c1ccccc1` [Example 1], the IC50 stood at 0.51 nM.
